From the supplement of paper PMC10307832

Experiments:
Assay in all cases: relative viability (nuclei count vs DMSO), 5 days (fraction); higher = more cells survive
[1] = test system: BEN
Outline: (§1)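 Relative viability is defined as nuclei in treated wells over nuclei in vehicle wells. Duplicate plates were run and medians reported. Lung cancer cell lines in 1536-well plates were dosed by pin tool one day after seeding, with one drug or with a fixed anchor-drug dose plus five library-drug doses (not always all listed) in √10 steps, and nuclei were counted after 5 days.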

[2] = test system: EKVX
Outline: as §1

[3] = test system: HARA
Outline: as §1

[4] = test system: HCC-366
Outline: as §1

[5] = test system: HCC-827
Outline: as §1

[6] = test system: LOU-NH91
Outline: as §1

[7] = test system: NCI-H1355
Outline: as §1

[8] = test system: NCI-H1395
Outline: as §1

[9] = test system: NCI-H1437
Outline: as §1

[10] = test system: NCI-H1734
Outline: as §1

[11] = test system: NCI-H1792
Outline: as §1

[12] = test system: NCI-H1993
Outline: as §1

[13] = test system: NCI-H2009
Outline: as §1

[14] = test system: NCI-H2087
Outline: as §1

[15] = test system: NCI-H2405
Outline: as §1

[16] = test system: NCI-H647
Outline: as §1

[17] = test system: NCI-H661
Outline: as §1

[18] = test system: SK-LU-1
Outline: as §1

[19] = test system: SK-MES-1
Outline: as §1

COc1nc(C)cnc1NS(=O)(=O)c1cccnc1-c1ccc(-c2nnco2)cc1 [Zibotentan] + C[C@]1(O)C[C@@H](c2nc(-c3ccc4ccc(-c5ccccc5)nc4c3)c3c(N)nccn32)C1 [Linsitinib] (partner 1 µM)
relative viability ([1]; first compound 0.08 µM): 1.04 | relative viability ([1]; first compound 0.253 µM): 0.773 | relative viability ([1]; first compound 0.8 µM): 0.958 | relative viability ([1]; first compound 2.53 µM): 0.886 | relative viability ([2]; first compound 0.08 µM): 1.02 | relative viability ([2]; first compound 0.253 µM): 1.02 | relative viability ([2]; first compound 0.8 µM): 0.777 | relative viability ([2]; first compound 2.53 µM): 1.16 | relative viability ([3]; first compound 0.08 µM): 1.24 | relative viability ([3]; first compound 0.253 µM): 0.945 | relative viability ([3]; first compound 0.8 µM): 0.955 | relative viability ([3]; first compound 2.53 µM): 0.902 | relative viability ([4]; first compound 0.08 µM): 0.7 | relative viability ([4]; first compound 0.253 µM): 0.586 | relative viability ([4]; first compound 0.8 µM): 0.518 | relative viability ([4]; first compound 2.53 µM): 0.794 | relative viability ([5]; first compound 0.08 µM): 0.994 | relative viability ([5]; first compound 0.253 µM): 0.993 | relative viability ([5]; first compound 0.8 µM): 0.98 | relative viability ([5]; first compound 2.53 µM): 0.988 | relative viability ([6]; first compound 0.08 µM): 0.94 | relative viability ([6]; first compound 0.253 µM): 0.836 | relative viability ([6]; first compound 0.8 µM): 0.982 | relative viability ([6]; first compound 2.53 µM): 1.02 | relative viability ([7]; first compound 0.08 µM): 0.812 | relative viability ([7]; first compound 0.253 µM): 0.818 | relative viability ([7]; first compound 0.8 µM): 0.824 | relative viability ([7]; first compound 2.53 µM): 0.909 | relative viability ([8]; first compound 0.08 µM): 1.39 | relative viability ([8]; first compound 0.253 µM): 1.07 | relative viability ([8]; first compound 0.8 µM): 1.05 | relative viability ([8]; first compound 2.53 µM): 1.08 | relative viability ([9]; first compound 0.08 µM): 1.21 | relative viability ([9]; first compound 0.253 µM): 1 | relative viability ([9]; first compound 0.8 µM): 0.939 | relative viability ([9]; first compound 2.53 µM): 1.07 | relative viability ([10]; first compound 0.08 µM): 1.01 | relative viability ([10]; first compound 0.253 µM): 0.815 | relative viability ([10]; first compound 0.8 µM): 0.936 | relative viability ([10]; first compound 2.53 µM): 0.975 | relative viability ([11]; first compound 0.08 µM): 0.426 | relative viability ([11]; first compound 0.253 µM): 0.448 | relative viability ([11]; first compound 0.8 µM): 0.396 | relative viability ([11]; first compound 2.53 µM): 0.556 | relative viability ([12]; first compound 0.253 µM): 0.838 | relative viability ([12]; first compound 0.8 µM): 0.75 | relative viability ([12]; first compound 2.53 µM): 0.85 | relative viability ([13]; first compound 0.08 µM): 1.14 | relative viability ([13]; first compound 0.253 µM): 1.05 | relative viability ([13]; first compound 0.8 µM): 1.2 | relative viability ([13]; first compound 2.53 µM): 1.22 | relative viability ([14]; first compound 0.08 µM): 1.2 | relative viability ([14]; first compound 0.253 µM): 0.971 | relative viability ([14]; first compound 0.8 µM): 1.07 | relative viability ([14]; first compound 2.53 µM): 0.914 | relative viability ([15]; first compound 0.08 µM): 1.07 | relative viability ([15]; first compound 0.253 µM): 0.796 | relative viability ([15]; first compound 0.8 µM): 0.908 | relative viability ([15]; first compound 2.53 µM): 0.959 | relative viability ([16]; first compound 0.08 µM): 1.12 | relative viability ([16]; first compound 0.253 µM): 1.14 | relative viability ([16]; first compound 0.8 µM): 1.11 | relative viability ([16]; first compound 2.53 µM): 1.15 | relative viability ([17]; first compound 0.08 µM): 0.545 | relative viability ([17]; first compound 0.253 µM): 0.486 | relative viability ([17]; first compound 0.8 µM): 0.518 | relative viability ([17]; first compound 2.53 µM): 0.68 | relative viability ([18]; first compound 0.08 µM): 0.833 | relative viability ([18]; first compound 0.253 µM): 0.888 | relative viability ([18]; first compound 0.8 µM): 1.15 | relative viability ([18]; first compound 2.53 µM): 1.22 | relative viability ([19]; first compound 0.08 µM): 1.12 | relative viability ([19]; first compound 0.253 µM): 1 | relative viability ([19]; first compound 0.8 µM): 1.05 | relative viability ([19]; first compound 2.53 µM): 1.14
